Assay results: US8329745B2, “Small molecule inhibitors of ghrelin O-acyltransferase” (Board of Regents, The University of Texas System, priority 2008, dated 2012)
One block for each molecule: values may come before it. Where a SMILES comes first, the peptide text is derived from it. [ ]: non-standard residue; d: D form. The star is where a group is joined. Octanoyl = CCCCCCCC(=O)*; Dap = NC[C@H](N)C(=O)O

How the values were obtained:
[1] = target: T1, mouse GOAT (Mus musculus, UniProt P0C7A3); assay: In vitro octanoylation assay: [3H]octanoyl transfer from octanoyl CoA to proghrelin-His8 by membranes of Sf9 cells expressing GOAT; assay type: biochemical; details: for inhibition of GOAT activity (qualitative): all concentrations tested / concentration not stated; for GOAT inhibitory activity compared with PH1147 / GOAT inhibitory activity/potency compared with BK1114: concentration not given; for GOAT inhibition in vitro compared with PH1147: 100 μM concentration; for dose response inhibition of GOAT activity in vitro / inhibition of GOAT activity at high concentration / IC50: Sf9 membranes; for dose response inhibition of GOAT activity in vitro: mouse His10-GOAT, 3% DMSO; for inhibition of GOAT activity at high concentration: 500 μM; for inhibition of GOAT activity at high concentration / IC50: mouse GOAT; for IC50: read-out: IC50 for GOAT inhibition in vitro
T1 construct: made in house; host or cells: Sf9 insect cells (baculovirus); crude membrane fraction used
T1 sequence (P0C7A3 1-435): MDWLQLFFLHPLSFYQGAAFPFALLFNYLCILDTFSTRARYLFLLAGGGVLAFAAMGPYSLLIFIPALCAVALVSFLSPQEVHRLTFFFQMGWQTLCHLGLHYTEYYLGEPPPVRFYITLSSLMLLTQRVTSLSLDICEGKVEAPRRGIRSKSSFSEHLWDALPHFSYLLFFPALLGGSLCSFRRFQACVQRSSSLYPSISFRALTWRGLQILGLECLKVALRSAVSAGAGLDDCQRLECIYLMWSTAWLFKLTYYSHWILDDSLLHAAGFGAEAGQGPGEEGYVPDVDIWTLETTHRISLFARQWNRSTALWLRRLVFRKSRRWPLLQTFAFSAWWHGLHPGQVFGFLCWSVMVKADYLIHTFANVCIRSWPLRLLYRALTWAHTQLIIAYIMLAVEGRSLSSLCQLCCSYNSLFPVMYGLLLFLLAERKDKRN
Description: The assay we used is described in copending U.S. Ser No. 12/167,917, filed: Jul. 3, 2008. For baculoviral infection of insect cells, mouse GOAT cDNA was inserted into pFastBac HT-A (His10-tag) (Invitrogen), and baculovirus was generated. Sf9 insect cells were cultured, set up on day 0 at a density of 5×10^5 cells/ml, and infected on day 1 with baculovirus encoding His 10-GOAT at a density of 1×10^6 cells/ml. Cells were harvested 48 h post-infection and washed once with phosphate-buffered saline.
Each pellet of Sf9 cells (obtained from 1 liter of cell culture) was disrupted with a Dounce homogenizer (40 strokes) on ice in 50 ml of buffer containing 50 mM Tris-Cl (pH 7.0), 150 mM NaCl, 1 mM sodium EDTA, 1 mM dithiothreitol, 100 μM bis(4-nitrophenyl) phosphate, 2.5 μg/ml aprotinin, 20 μg/ml phenylmethylsulfonyl fluoride, 10 μg/ml leupeptin, and 10 μg/ml pepstatin A. After an initial centrifugation at 3,000 g for 5 min at 4° C., the supernatant was further centrifuged at 100,000 g for 30 min at 4° C. to obtain a membrane fraction, which was stored at −80° C. until the time of assay. Just prior to assay, the membranes were suspended in 50 mM HEPES-NaOH (pH 7.0) and then passed through a 22-gauge needle 10 times. After centrifugation at 1,000 g for 1 min to remove aggregated materials, the supernatant (hereafter referred as membranes) was used for assays.
Unless otherwise stated, the standard assay mixture contained 50 mM HEPES-NaOH (pH 7.0), 50 μM palmitoyl CoA or myristyl ether CoA, 50 μg membrane protein, 5 μg recombinant wild type or mutant versions of proghrelin-His8 and 1 μM [^3H]octanoyl CoA (11 dpm/fmol) in a final volume of 50 μl. […] The columns were washed at room temperature with 1 ml of buffer A followed by 3 ml of buffer A containing 25 mM imidazole. The His-tagged proghrelin was then eluted with 1 ml of buffer A containing 250 mM imidazole. Radioactivity present in the 250 mM-imidazole eluate was quantified by liquid scintillation counting.
Compounds PH1147-1152 were screened for GOAT inhibition in vitro using membrane fractions prepared from Sf9 insect cells infected with baculovirus encoding mouse GOAT. The assay (described in U.S. Ser. No. 12/167,917) measures the extent of specific acyl transfer from tritiated octanoyl CoA to recombinant His-tagged proghrelin. […] PH1147 was the simplest molecule in the set and lacked motifs present in the more complex analogs intended to be Ser2 and/or Phe4 mimetics.
(§1) Inhibition of GOAT activity by [Dap^3]octanoyl-ghrelin (1-5)-NH2 peptide and BK1114. Membranes from Sf9 cells infected with baculovirus encoding mouse His10-GOAT were prepared as previously described (Yang J, Zhao T J, Goldstein J L, Brown M S. 2008 PNAS, 105: 10750-10755). Each 50-μl reaction mixture contained 50 μg of membrane protein, 5 μg of proghrelin-His8, 50 μM palmitoyl CoA, 1 μM http[^3H]octanoyl CoA (11 dpm/fmol), and the experimental concentrations of peptide or compound in a final concentration of 3% (vol/vol) DMSO. Control values were established which represent the amount of [3H]octanoyl proghrelin formed in the absence of compound.
as §1, with “the synthetic compounds, BK1114, BK1176, BK1177” for “[Dap^3]octanoyl-ghrelin (1-5)-NH2 peptide”, “BK1183.” for “BK1114.”, “et al., 2008, supra).” for “J, Zhao T J, Goldstein J L, Brown M S. 2008 PNAS, 105: 10750-10755).”, “[^3H]octanoyl” for “http[^3H]octanoyl”, “the” for “peptide or”

[2] = target: T2, GOAT (Mus musculus, UniProt P0C7A3); assay: Inhibition of GOAT activity in intact INS-1 cells co-expressing preproghrelin and GOAT (anti-ghrelin immunoblot); assay type: cell-based, Rat; details: 5 to 10 to 20 to 50 uM inhibitor, 24 h
T2 construct: expressed in transfected cells; host or cells: rat INS-1 cells stably co-expressing preproghrelin (pCMV-preproghrelin) and GOAT-T7 (pEF-GOAT-T7)
T2 sequence (P0C7A3 1-435): T1 sequence (P0C7A3 1-435)
Description: A stably transfected INS-1 cell line co-expressing preproghrelin and GOAT was established as described below. On day 0, cells were set up at a density of 1.5×10^6/100-mm dish in medium A (RPMI-1640 medium supplemented with 10 mM HEPES, 50 μM β-mercaptoethanol, 100 U/ml penicillin, and 100 μg/ml streptomycin) containing 10% (v/v) FCS. On day 2, fresh medium was added. On day 4, the cells received a direct addition of the indicated concentration of BK1114 delivered in DMSO. The final concentration of DMSO in each dish was 0.5%. 24 h after treatment, two dishes of cells from each condition were harvested and pooled, after which peptides were extracted from the cells, fractioned on reverse-phase chromatography, and subjected to immunoblot analysis with a 1:1000 dilution of rabbit anti-ghrelin antibody as previously described (Yang J, Brown M S, Liang G, Grishin N V, Goldstein J L (2008) Identification of the acyltransferase that octanoylates ghrelin, an appetite-stimulating peptide hormone. Cell 132:387-39). Films were exposed for 1 min.
Stably transfected cell line co-expressing preproghrelin and GOAT. Rat INS-1 cells were grown in monolayer at 37° C. in 8.8% CO2 as previously described (Id.). […] Expression of proghrelin and ghrelin was assessed by immunoblot analysis. […] Expression of GOAT-T7 was assessed by immunoblot analysis.

Compound: CCC(C)(O)/C=C/[C@H](NC(=O)OCc1ccccc1)C(=O)OC (stereo partly shown) [BK1095]
inhibition of GOAT activity (qualitative) [1]: little inhibition

Compound: CCCCCCCC(O)/C=C/[C@H](NC(=O)C(F)(F)F)C(=O)OC (stereo partly shown) [BK1112]
GOAT inhibitory activity compared with PH1147 [1]: not helpful

Compound: CCCCCCCC(C)(O)/C=C/C(NC(=O)OCc1ccccc1)C(=O)OC (stereo not shown) [BK1114]
GOAT inhibition in vitro compared with PH1147 [1]: roughly twice as efficacious as PH1147
dose response inhibition of GOAT activity in vitro [1]: dose response inhibition
dose response inhibition of GOAT activity in intact cells [2]: dose inhibition response

Compound: CCCCCCCC(C)(O)/C=C/[C@H](NC(=O)OCc1ccccc1)C(=O)N[C@@H](Cc1ccccc1)C(=O)N[C@@H](CC(C)C)C(N)=O (stereo partly shown) [BK1129]
GOAT inhibitory activity/potency compared with BK1114 [1]: Neither was as effective as BK1114

Compound: CCCCCCCC(C)(O)/C=C/[C@H](NC(=O)C(C)(C)CO)C(=O)OC (stereo partly shown) [BK1137]
inhibition of GOAT activity (qualitative) [1]: essentially inactive

Compound: CCCCCCCC(C)(O)/C=C/[C@H](NC(=O)C(C)(C)CO)C(=O)N[C@@H](Cc1ccccc1)C(=O)N[C@@H](CC(C)C)C(N)=O (stereo partly shown) [BK1141]
inhibition of GOAT activity (qualitative) [1]: retains some activity

Compound: CCCCCCCC(C)(O)/C=C/[C@@H](NC(=O)OCc1ccccc1)C(=O)OC (stereo partly shown) [BK1149]
GOAT inhibitory activity/potency compared with BK1114 [1]: comparable to BK1114

Compound: CCCCCCCC(O)(/C=C/[C@H](NC(=O)OCc1ccccc1)C(=O)OC)CCC (stereo partly shown) [BK1165]
GOAT inhibitory activity/potency compared with BK1114 [1]: without compromising activity

Compound: CCCCCCCC(O)CC[C@@H](CO)NC(=O)[C@H](C)NC(=O)CNC (stereo partly shown) [PH1167]
GOAT inhibitory activity compared with PH1147 [1]: neither PH1159 nor PH1167 possessed activity comparable to PH1147

Compound: CCCCCCCC(=O)NC[C@H](NC(=O)[C@H](CO)NC(=O)CN)C(=O)N[C@@H](Cc1ccccc1)C(=O)N[C@@H](CC(C)C)C(N)=O [Structure 2, [Dap^3]octanoyl-ghrelin (1-5)-NH2, reference compound] (H-GS[Dap](Octanoyl)FL-NH2)
IC50 [1]: ~1.5 µM
dose response inhibition of GOAT activity in vitro [1]: dose response inhibition

The next lines start with the values.

GOAT inhibitory activity/potency compared with BK1114 [1]: does not perform as well as BK1114
Compound: CCCCCCCC(=O)NC[C@H](NC(=O)OCc1ccccc1)C(=O)OC [LN1111622]

inhibition of GOAT activity at high concentration [1]: greatest inhibition
IC50 [1]: ~90 µM
Compound: CCCCCCCC(O)/C=C/[C@H](NC(=O)OCc1ccccc1)C(=O)OC (stereo partly shown) [PH1147]

inhibition of GOAT activity at high concentration [1]: inhibited GOAT activity
Compound: CCCCCCCC(O)CC[C@H](NC(=O)CC(C)(C)O)C(=O)OC (stereo partly shown) [PH1149]

inhibition of GOAT activity at high concentration [1]: inhibited GOAT activity
Compound: CCCCCCCC(O)CC[C@H](NC(=O)C(C)(C)CO)C(=O)OC (stereo partly shown) [PH1150]

GOAT inhibition in vitro compared with PH1147 [1]: comparably to PH1147
GOAT inhibition at higher concentrations ([1]; concentrations higher than 100 μM, compared with PH1147): performed more poorly
Compound: CCCCCCCC(=O)CC[C@H](NC(=O)OCc1ccccc1)C(=O)OC [PH1154a]

GOAT inhibitory activity/potency compared with BK1114 [1]: do not improve activity
Compound: CCCCCCCC(C)(O)/C=C/[C@H](NC(=O)OCc1ccccc1)C(=O)NC(C)C (stereo partly shown) [PH1176a]

GOAT inhibitory activity/potency compared with BK1114 [1]: do not improve activity
Compound: CCCCCCCC(C)(O)C/C=C(/NC(=O)OCc1ccccc1)C(=O)NC(C)C (stereo not shown) [PH1176b]
